Data published in patent US6525059B1, “Substituted pyrazoles as p38 kinase inhibitors” (G. D. Searle & Company, priority 1998, dated 2003).
Where two headings read alike, the source gives them in different places.

Key:
human p38 kinase alpha = target: T1, human p38 kinase alpha (Homo sapiens, UniProt Q16539); assay: p38 kinase in vitro assay, phosphorylation of biotinylated PHAS-I with gamma 32P-ATP; format: biochemical; settings: for inhibition at 1 µM / inhibition at 10 µM: read-out: P38 alpha kinase % inhib @ conc.
T1 construct: The coding region of the human p38a cDNA was obtained by PCR-amplification from RNA isolated from the human monocyte cell line THP.1; GST (N); made in house; host or cells: E. coli DH10B
Summary of the method: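 Radiometric filter-capture read-out: streptavidin plates trap biotin-PHAS-I labelled by activated (MKK6) human p38α from γ-32P-ATP. Buffer 25 mM HEPES pH 7.5, 10 mM magnesium acetate, 50 μM cold ATP; reactions 1 h or overnight at 30 °C; inhibitors 10-fold dilutions 100 to 0.001 μM, triplicates, 1% DMSO.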

TNF-α = assay: LPS stimulation of TNF production by U937 cells; format: cell-based, human; settings: for inhibition at 1 µM: U-937, @ 1.0 uM, read-out: U937 Cell % inhib @ conc.
Summary of the method: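 PMA-differentiated human U937 cells (20 ng/ml PMA, 24 h, then 24-48 h rest) at 2 million cells/ml, 0.1% DMSO final, stimulated with E. coli LPS (100 ng/ml final) for 4 h at 37° C. TNF-α in medium measured by ELISA; IC50 in μM.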

[1] = p38α in vitro, PHAS-I assay procedure, read-out: p38^1 IC50
[2] = Homo sapiens, U-937, LPS-stimulated U937 cells, read-out: U937 IC50
[3] = read-out: P38 alpha kinase IC50
[4] = Homo sapiens, U-937, TNF production, LPS-stimulated human U937 cells, read-out: U937 Cell IC50

T1 sequence (Q16539 whole entry): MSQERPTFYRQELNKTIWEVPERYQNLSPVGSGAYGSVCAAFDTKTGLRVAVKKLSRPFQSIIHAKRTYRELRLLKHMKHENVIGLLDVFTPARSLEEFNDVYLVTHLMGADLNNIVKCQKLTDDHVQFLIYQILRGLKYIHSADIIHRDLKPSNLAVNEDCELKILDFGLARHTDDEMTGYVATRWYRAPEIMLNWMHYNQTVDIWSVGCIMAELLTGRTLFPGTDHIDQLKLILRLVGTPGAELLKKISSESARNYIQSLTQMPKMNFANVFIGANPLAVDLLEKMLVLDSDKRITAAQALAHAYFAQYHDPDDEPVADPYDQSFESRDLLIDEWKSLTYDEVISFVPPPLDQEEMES

Compound | IC50 (human p38 kinase alpha; [3]) | inhibition at 1 µM (TNF-α; Homo sapiens) | other results
OCCCNc1cc(-c2c[nH]nc2-c2ccc(F)cc2)ccn1 [Example A-282, 3-[[4-[3-(4-fluorophenyl)-1H-pyrazol-4-yl]-2-pyridinyl]amino]-1-propanol] |  |  | IC50 (human p38 kinase alpha; [1]): 0.045 µM; IC50 (TNF-α; [2]): 0.0973 µM
Fc1ccc(-c2n[nH]cc2-c2ccnc3ccccc23)cc1 [Example A-291] |  |  | IC50 (human p38 kinase alpha; [1]): 0.388 µM; IC50 (TNF-α; [2]): 1.13 µM
O=C(NCc1[nH]nc(-c2ccc(F)cc2)c1-c1ccncc1)c1cccnc1 [Example B-0200] | 1.31 µM | 16% | 
C[C@@H](NC(=O)c1ccccc1Br)c1[nH]nc(-c2ccc(F)cc2)c1-c1ccncc1 [Example B-0526] | 0.031 µM | 87% | 
C[C@@H](NS(=O)(=O)c1cccc2ccccc12)c1[nH]nc(-c2ccc(F)cc2)c1-c1ccncc1 [Example B-0441] | 0.8 µM | 58% | 
CC(=O)Nc1ccc(S(=O)(=O)NCc2[nH]nc(-c3ccc(F)cc3)c2-c2ccncc2)cc1 [Example B-0223] | 0.2 µM | 1% | 
C[C@@H](NC(=O)c1cccnc1)c1[nH]nc(-c2ccc(F)cc2)c1-c1ccncc1 [Example B-0377] | 1.29 µM | 36% | 
C[C@@H](NC(=O)c1cccs1)c1[nH]nc(-c2ccc(F)cc2)c1-c1ccncc1 [Example B-0528] | 0.14 µM | 70% | 
CCCCS(=O)(=O)NCc1[nH]nc(-c2ccc(F)cc2)c1-c1ccncc1 [Example B-0100] |  |  | inhibition at 1 µM (human p38 kinase alpha; @ 1.0 uM): 75%; IC50 (TNF-α; [4]): 5 µM
CC(C)S(=O)(=O)N[C@H](C)c1[nH]nc(-c2ccc(F)cc2)c1-c1ccncc1 [Example B-0387] | 0.41 µM | 52% | 
C[C@@H](NC(=O)c1cc(F)cc(F)c1)c1[nH]nc(-c2ccc(F)cc2)c1-c1ccncc1 [Example B-0502] | 0.065 µM | 48% | 
C[C@@H](NS(=O)(=O)c1cccc2nonc12)c1[nH]nc(-c2ccc(F)cc2)c1-c1ccncc1 [Example B-0477] | 1.48 µM | 96% | 
O=C(Cc1cccc2ccccc12)NCc1[nH]nc(-c2ccc(F)cc2)c1-c1ccncc1 [Example B-0171] |  | 21% | inhibition at 10 µM (human p38 kinase alpha): 61%
C=CCOC(=O)NCc1[nH]nc(-c2ccc(F)cc2)c1-c1ccncc1 [Example B-0033] |  |  | P38 alpha kinase % inhib @ conc. (human p38 kinase alpha; @ 1.0 uM): 97.0% @ 1.0 uM; IC50 (TNF-α; TNF production, LPS-stimulated human U937 cells, read-out: U937 Cell IC50): 10 µM
C#CCn1ncc(-c2ccncc2)c1-c1ccc(F)cc1 [Example A-295, 4-[5-(4-fluorophenyl)-1-(2-propynyl)-1H-pyrazol-4-yl]pyridine] |  |  | IC50 (human p38 kinase alpha; [1]): 7.66 µM; IC50 (TNF-α; [2]): > 10 µM
C[C@@H](NS(=O)(=O)c1ccc(-c2ccccn2)s1)c1[nH]nc(-c2ccc(F)cc2)c1-c1ccncc1 [Example B-0483] | 0.57 µM | 68% | 
O=C(NCc1[nH]nc(-c2ccc(F)cc2)c1-c1ccncc1)c1c(F)ccc(F)c1F [Example B-0278] | 1.26 µM | 36% | 
CCS(=O)(=O)NCc1[nH]nc(-c2ccc(F)cc2)c1-c1ccncc1 [Example B-0105] |  |  | inhibition at 1 µM (human p38 kinase alpha; @ 1.0 uM): 78%; IC50 (TNF-α; [4]): 5 µM
C[C@@H](NC(=O)c1c(F)ccc(F)c1F)c1[nH]nc(-c2ccc(F)cc2)c1-c1ccncc1 [Example B-0503] | 0.16 µM | 73% | 
CN(C)CCCNc1[nH]nc(-c2ccc(F)cc2)c1-c1ccncc1 [Example A-287, N′-[5-(4-fluorophenyl)-4-(4-pyridinyl)-1H-pyrazol-3-yl]-N,N-dimethyl-1,3-propanediamine] |  |  | IC50 (human p38 kinase alpha; [1]): 0.041 µM; IC50 (TNF-α; [2]): 0.27 µM
Clc1ccc(-c2n[nH]cc2-c2ccncc2)cc1Cl [Example A-297, 4-[3-(3,4-dichlorophenyl)-1H-pyrazol-4-yl]pyridine] |  |  | IC50 (human p38 kinase alpha; [1]): 0.52 µM; IC50 (TNF-α; [2]): 0.17 µM
Cc1ccccc1C(=O)NCc1[nH]nc(-c2ccc(F)cc2)c1-c1ccncc1 [Example B-0267] | 0.48 µM | 11% | 
COc1ccccc1C(=O)NCc1[nH]nc(-c2ccc(F)cc2)c1-c1ccncc1 [Example B-0011] | 0.03 µM |  | IC50 (TNF-α; [4]): 4.47 µM
C[C@@H](NC(=O)c1cccc(Br)c1)c1[nH]nc(-c2ccc(F)cc2)c1-c1ccncc1 [Example B-0362] | 0.52 µM | 27% | 
CC(=O)OC(C)(C)C(=O)NCc1[nH]nc(-c2ccc(F)cc2)c1-c1ccncc1 [Example B-0043] | 0.22 µM |  | IC50 (TNF-α; [4]): 0.54 µM
O=C(NCc1[nH]nc(-c2ccc(F)cc2)c1-c1ccncc1)[C@@H]1CCCN1C(=O)OCC1c2ccccc2-c2ccccc21 [Example B-0195] | 1.03 µM | 55% | 

Compound | IC50 (human p38 kinase alpha; [3]) | inhibition at 1 µM (TNF-α; Homo sapiens) | other results
Cc1cccc(-c2n[nH]cc2-c2ccnc(C)c2)c1 [Example A-143, 2-methyl-4-[3-(3-methylphenyl)-1H-pyrazol-4-yl]pyridine] |  |  | IC50 (human p38 kinase alpha; activated human p38 kinase alpha, PHAS-I substrate, 50 μM unlabeled ATP, read-out: p38 kinase IC50): < 0.1 µM; IC50 (TNF-α; Homo sapiens, U-937, LPS-stimulated U937 cells, read-out: U937 Cell Assay IC50): 0.301 µM
CC(C)c1cc(C(C)C)c(C(=O)NCc2[nH]nc(-c3ccc(F)cc3)c2-c2ccncc2)c(C(C)C)c1 [Example B-0272] | 1.81 µM | 48% | 
O=S(=O)(NCc1[nH]nc(-c2ccc(F)cc2)c1-c1ccncc1)c1cccc2nonc12 [Example B-0252] | 0.041 µM | 54% | 
Cc1noc(C)c1S(=O)(=O)NCc1[nH]nc(-c2ccc(F)cc2)c1-c1ccncc1 [Example B-0251] | 0.31 µM | 1% | 
CCN(CC)CCn1cc(-c2ccncc2)c(-c2ccc(F)cc2)n1 [Example A-284, N,N-diethyl-3-(4-fluorophenyl)-4-(4-pyridinyl)-1H-pyrazole-1-ethanamine] |  |  | IC50 (human p38 kinase alpha; [1]): 0.98 µM; IC50 (TNF-α; [2]): 0.509 µM
C[C@@H](NC(=O)c1ccccc1)c1[nH]nc(-c2ccc(F)cc2)c1-c1ccncc1 [Example B-0375] | 1 µM | 19% | 
COc1ccc(S(=O)(=O)N[C@H](C)c2[nH]nc(-c3ccc(F)cc3)c2-c2ccncc2)cc1OC [Example B-0400] | 0.16 µM | 25% | 
CN(C)c1cccc2c(S(=O)(=O)NCc3[nH]nc(-c4ccc(F)cc4)c3-c3ccncc3)cccc12 [Example B-0122] |  | 2% | inhibition at 10 µM (human p38 kinase alpha): 79%
O=C(NCCc1ccccc1)NCc1[nH]nc(-c2ccc(F)cc2)c1-c1ccncc1 [Example B-0157] |  | 9% | inhibition at 10 µM (human p38 kinase alpha): 48%
C[C@@H](NC(=O)Nc1cccc(F)c1)c1[nH]nc(-c2ccc(F)cc2)c1-c1ccncc1 [Example B-0418] | 0.22 µM | 27% | 
C[C@@H](NC(=O)c1cc(F)cc(C(F)(F)F)c1)c1[nH]nc(-c2ccc(F)cc2)c1-c1ccncc1 [Example B-0513] | 0.72 µM | 52% | 
C[C@@H](NC(=O)c1cccc(C(F)(F)F)c1)c1[nH]nc(-c2ccc(F)cc2)c1-c1ccncc1 [Example B-0495] | 0.12 µM | 25% | 
O=S(=O)(NCc1[nH]nc(-c2ccc(F)cc2)c1-c1ccncc1)c1ccc(-c2ccccn2)s1 [Example B-0258] | 0.37 µM | 63% | 
O=C(NCc1[nH]nc(-c2ccc(F)cc2)c1-c1ccncc1)c1ccco1 [Example B-0209] | 0.29 µM | 8% | 
O=S(=O)(NCc1[nH]nc(-c2ccc(F)cc2)c1-c1ccncc1)c1ccc(-c2ccon2)s1 [Example B-0262] | 0.41 µM | 89% | 
C[C@@H](NS(=O)(=O)c1c(Cl)cccc1Cl)c1[nH]nc(-c2ccc(F)cc2)c1-c1ccncc1 [Example B-0453] | 0.47 µM | 75% | 
C=CCOC(=O)N[C@H](C)c1[nH]nc(-c2ccc(F)cc2)c1-c1ccncc1 [Example B-0357] | 1.46 µM |  | IC50 (TNF-α; [4]): 0.66 µM
Cc1c(Cl)cccc1S(=O)(=O)N[C@H](C)c1[nH]nc(-c2ccc(F)cc2)c1-c1ccncc1 [Example B-0447] | 0.19 µM | 71% | 
Cc1ccccc1C(=O)N[C@H](C)c1[nH]nc(-c2ccc(F)cc2)c1-c1ccncc1 [Example B-0492] | 0.069 µM | 42% | 
COc1ccc(C)cc1S(=O)(=O)NCc1[nH]nc(-c2ccc(F)cc2)c1-c1ccncc1 [Example B-0246] | < 0.1 µM |  | IC50 (TNF-α; [4]): > 1 µM
CC(=O)NCc1[nH]nc(-c2ccc(F)cc2)c1-c1ccncc1 [Example B-0044] | 0.14 µM |  | IC50 (TNF-α; [4]): 0.19 µM
CCOC(=O)NCc1[nH]nc(-c2ccc(F)cc2)c1-c1ccncc1 [Example B-0204] | 0.21 µM | 48% | 
C[C@@H](NS(=O)(=O)c1ccccc1S(C)(=O)=O)c1[nH]nc(-c2ccc(F)cc2)c1-c1ccncc1 [Example B-0489] | 0.3 µM | 80% | 
CC(C)=CC(=O)N[C@H](C)c1[nH]nc(-c2ccc(F)cc2)c1-c1ccncc1 [Example B-0370] | 0.65 µM | 28% | 
Cc1cc(C)c(S(=O)(=O)N[C@H](C)c2[nH]nc(-c3ccc(F)cc3)c2-c2ccncc2)c(C)c1 [Example B-0439] | 2.12 µM | 65% | 
